Reference: US8715761B2, “Flavor molecules” (Givaudan S.A., priority 2008, dated 2014)

How the values were obtained:
Type in all cases: in vivo
[1] = Taste testing in water by a panel of experienced tasters
Excerpt: The taste testing was made by a panel of experienced tasters.

[2] = Sweetness in plain non-fat yoghurt by a trained panel; conditions: 5% sugar and 25 ppm of the compound in plain non-fat yoghurt
Procedure: 5% sugar and 25 ppm of the compound were added to plain non-fat yoghurt. A trained panel compared this to a series of plain non-fat yoghurts to which 5%, 6% 7% and 8% sugar had been added.

[3] = Sweet isointensity against sugar solutions by a testing panel
Procedure: The sweet isointensity was tested against a variety of sugar solutions by a testing panel.

[4] = Flavorist evaluation of how Compound 13 modifies a flavor in water and in application
Excerpt: Evaluation Data on the Compound of Example 13, showing how it Modifies a Flavor in Water and in Application.
Strawberry A=candy strawberry. Strawberry B=green strawberry. Strawberry C=floral strawberry. Strawberry D=fruity strawberry.

[5] = Isointensity (R-index) of 20 ppm Compound 13 in water, alone and with 7% sucrose, versus sucrose solutions
Excerpt: The sweet enhancement effect of Compound 13 is illustrated in the following tables: the isointensity of Compound 13 at 20 ppm equals 0.5% sucrose. The isointensity of 7% sucrose with 20 ppm 1-(2-hydroxyphenyl)-3-(pyridin-4-yl)propan-1-one is 8% sucrose. Therefore, the perceived enhancement of sucrose is about 0.5% sucrose (8%-7.5%). This sweet enhancement effect is also observed with consumable products containing other natural and artificial sweeteners, for example, carbohydrates; sucrose, lactose, D-glucose, D-tagatose, D-fructose whether naturally- or synthetically-produced, erythritol, threitol, arabitol, ribitol, xylitol, sorbitol, mannitol, maltitol, isomaltitol, dulcitol, and lactitol, thaumatin, glycin, D-phenylalanine, D-tryptophan, sodium cyclamate, acesulfam K, neohesperidine dihydrochalcone, sodium salt of saccharin, aspartame, superaspartame, neotam, alitam, sucralose, and stevioside.

[6] = 7% sucrose + 20 ppm Cmpd 13 in water vs. 7% sucrose
[7] = 7% sucrose + 20 ppm Cmpd 13 in water vs. 8% sucrose
[8] = 7% sucrose + 20 ppm Cmpd 13 in water vs. 9% sucrose
[9] = 7% sucrose + 20 ppm Cmpd 13 in water vs. 10% sucrose
[10] = 20 ppm Compound 13 in water vs. 0.5% sucrose
[11] = 20 ppm Compound 13 in water vs. 1% sucrose

O=C(CCc1ccccn1)c1ccccc1O [Example 12, 1-(2-hydroxyphenyl)-3-(pyridin-2-yl)propan-1-one]
Taste results in water ([1]; 1 ppm): umami | Taste results in water ([1]; 10 ppm): high umami like taste | Taste results in water ([1]; 100 ppm): strong umami, slightly bitter

Cc1cc(CCC(=O)c2ccccc2O)no1 [Example 6, 1-(2-hydroxyphenyl)-3-(5-methylisoxazol-3-yl)propan-1-one]
Taste results in water ([1]; 0.1 ppm): slightly bitter | Taste results in water ([1]; 1 ppm): slightly bitter, weakly sweet | Taste results in water ([1]; 10 ppm): brothy, umami, soapy, irritating, garlic | Taste results in water ([1]; 100 ppm): umami, bitter, soapy, garlic

O=C(CCc1ccco1)c1ccccc1O [Example 8, 3-(furan-2-yl)-1-(2-hydroxyphenyl)propan-1-one]
Taste results in water ([1]; 0.01 ppm): nothing | Taste results in water ([1]; 0.1 ppm): soap, delayed sweet | Taste results in water ([1]; 1 ppm): soap, umami, bitter | Taste results in water ([1]; 10 ppm): licorice aroma, soapy, weak sweet, bitter, vegetable, terpen | Taste results in water ([1]; 100 ppm): bitter, licorice aroma, weak sweet, celery, umami, brothy

COc1ccc(CCC(=O)c2ccc(O)cc2O)cn1 [Example 18]
Taste results in water ([1]; 100 ppm): 100 ppm, sweet

Cl.O=C(CCc1ccncc1)c1ccccc1O [Example 21, 4-(3-(2-hydroxyphenyl)-3-oxopropyl)pyridinium chloride]
isosweet to [2]: 6.5 % sugar | sweet isointensity (isosweet to) ([3]; 30 ppm): 0.75 % sucrose | sweetness equivalent ([3]; 30 ppm of the compound + 7% sucrose): 8.5 % sucrose | sweet isointensity (isosweet to) ([3]; 35 ppm): 1.0 % sucrose | sweet isointensity (isosweet to) ([3]; 40 ppm): 1.25 % sucrose

Cc1csc(CCC(=O)c2ccccc2O)n1 [Example 11, 1-(2-hydroxyphenyl)-3-(4-methylthiazol-2-yl)propan-1-one]
Taste results in water ([1]; 0.01 ppm): nothing | Taste results in water ([1]; 0.1 ppm): very weak bitter | Taste results in water ([1]; 1 ppm): astringent, bitter | Taste results in water ([1]; 10 ppm): bitter, astringent | Taste results in water ([1]; 100 ppm): bitter, terpen, weak sweet

COc1ccc(CCC(=O)c2ccccc2O)cn1 [Example 1, 1-(2-hydroxyphenyl)-3-(6-methoxypyridin-3-yl)propan-1-one]
Taste results in water ([1]; 5 ppm): very weak sweet | Taste results in water ([1]; 20 ppm): weakly sweet | Taste results in water ([1]; 100 ppm): very strong sweet, weak bitter taste

O=C(CCc1ccncc1)c1ccccc1O [Example 13, 1-(2-hydroxyphenyl)-3-(pyridin-4-yl)propan-1-one]
Taste results in water ([1]; 0.01 ppm to 0.1 ppm): nothing | Taste results in water ([1]; 1 ppm): weak sweet | Taste results in water ([1]; 10 ppm): sweet | Taste results in water ([1]; 100 ppm): very sweet, licorice linger | Flavorist Evaluation ([4]; 2% milk, 20 ppm compound 13): Slight change in profile, Sweeter than control | Flavorist Evaluation ([4]; Cereal, 50% reduced sugar + 20 ppm of compound 13): Not lingering, more brown notes, roasted, | Flavorist Evaluation ([4]; Cereal, 50% reduced sugar + 20 ppm of compound 13 + 100 ppm of Sweet Flavor B): Nice, works well, more close to sugar taste, | Flavorist Evaluation ([4]; Cereal, 50% reduced sugar + 50 ppm of compound 13): Sweeter than 50% reduced control, better | Flavorist Evaluation ([4]; Strawberry yoghurt, 3% fat, 7% sugar, Strawberry flavour D @ 0.1% + 10 ppm of compound 13): Fruity, slightly fermented, caramellic, green | Flavorist Evaluation ([4]; Strawberry yoghurt, 3% fat, 7% sugar, Strawberry flavour D @ 0.1% + 25 ppm of compound 13): Fruity, sweet, fermented, caramellic, apple like | Flavorist Evaluation ([4]; Strawberry yoghurt, 3% fat, 7% sugar, Strawberry flavour D @ 0.1% + 50 ppm of compound 13): Fermented, sweet, brown, caramellic, overripe | Flavorist Evaluation ([4]; Vanilla ice cream, 8% vegetable fat, Vanilla flavour A @ 0.5% + 10 ppm of compound 13): creamy, vanillic, sweet, slightly cooked | Flavorist Evaluation ([4]; Vanilla ice cream, 8% vegetable fat, Vanilla flavour A @ 0.5% + 15 ppm of compound 13): creamy, sweet, vanillic, lingering sweet vanilla | Flavorist Evaluation ([4]; Vanilla ice cream, 8% vegetable fat, Vanilla flavour A @ 0.5% + 30 ppm of compound 13): sweet, vanillic, lingering sweet vanilla | Flavorist Evaluation ([4]; Water, 7% sugar + 20 ppm of compound 13): Sweeter than 7% sugar, little floral, fuller, slight | Flavorist Evaluation ([4]; Water, 7% sugar + 50 ppm of compound 13): Sweeter than above, very close to 9% sugar- | Flavorist Evaluation ([4]; Water, 7% sugar with 0.105% Citric acid + 20 ppm of compound 13): Sweeter than control, not effecting acidity, | Flavorist Evaluation ([4]; Water, 7% sugar with 0.105% Citric acid + 50 ppm of compound 13): Sweeter than sample at 20 ppm, musty, clean, | Flavorist Evaluation ([4]; Water, Strawberry A @ 0.2% + 20 ppm compound 13): Green character remains but softer, sweeter | Flavorist Evaluation ([4]; Water, Strawberry B @ 0.2% + 20 ppm compound 13): Sweeter, less green, jammer, maltol-like note, | Flavorist Evaluation ([4]; Water, Strawberry C @ 0.2% + 20 ppm compound 13): Less green, less floral, burnt sugar caramel | Flavorist Evaluation ([4]; Water, Sweetness Improver Flavor A + 5 ppm compound 13 in 25% sugar reduction Grape Type Drink): Sweet grape character with the acidic middle | R-index [5, 6]: 66% | sample sweetness [5, 6]: sweeter | R-index [5, 7]: 43% | sample sweetness [5, 7]: isosweet | R-index [5, 8]: 8% | sample sweetness [5, 8]: less | R-index [5, 9]: 4% | sample sweetness [5, 9]: less | isointensity ([5]; 7% sucrose with 20 ppm compound): 8 % sucrose | R-index [5, 10]: 61% | sample sweetness [5, 10]: isosweet | R-index [5, 11]: 14% | sample sweetness [5, 11]: less sweet | perceived enhancement of sucrose ([5]; 20 ppm in 7% sucrose (8%-7.5%)): about 0.5 % sucrose | isointensity ([5]; 20 ppm in water): 0.5 % sucrose

COc1ncccc1CCC(=O)c1ccccc1O [Example 3, 1-(2-hydroxyphenyl)-3-(2-methoxypyridin-3-yl)propan-1-one]
Taste results in water ([1]; 1 ppm): Very weak sweet | Taste results in water ([1]; 10 ppm): Very weak sweet | Taste results in water ([1]; 50 ppm): bitter, weakly sweet and burning

COc1cccc(CCC(=O)c2ccccc2O)n1 [Example 2, 1-(2-hydroxyphenyl)-3-(6-methoxypyridin-2-yl) propan-1-one]
Taste results in water ([1]; 10 ppm): Slightly sweet/bitter | Taste results in water ([1]; 100 ppm): sweet, bitter, slight fruity

O=C(CCc1cccnc1)c1ccccc1O [Example 7, 1-(2-hydroxyphenyl)-3-(pyridin-3-yl)propan-1-one]
Taste results in water ([1]; 0.1 ppm): nothing | Taste results in water ([1]; 1 ppm): very weak sweet, astringent | Taste results in water ([1]; 10 ppm): waxy, delayed sweet, astringent | Taste results in water ([1]; 100 ppm): weak sweet, chemical, bitter

O=C(CCc1nccs1)c1ccccc1O [Example 15, 1-(2-hydroxyphenyl)-3-(thiazol-2-yl)propan-1-one]
Taste results in water ([1]; 0.01 ppm): delayed umami aftertaste | Taste results in water ([1]; 0.1 ppm): delayed umami aftertaste | Taste results in water ([1]; 1 ppm): weak plastic, soap, umami, astringent | Taste results in water ([1]; 10 ppm): astringent. strong umami, weak soap, slight bitter | Taste results in water ([1]; 100 ppm): bitter. umami

Cc1ncsc1CCC(=O)c1ccccc1O [Example 4, 1-(2-hydroxyphenyl)-3-(4-methylthiazol-5-yl)propan-1-one]
Taste results in water ([1]; 0.1 to 1 ppm): petroleum, sulfur | Taste results in water ([1]; 10 ppm): very weak sweet, brothy | Taste results in water ([1]; 100 ppm): sweet, brothy, gassy, bitter, linger
